Reference: the supplement of paper PMC10307832

Assays:
Experiment in all cases: relative viability (nuclei count vs DMSO), 5 days (fraction); higher = more cells survive
Tipifarnib + Alpelisib = compound: Cn1cncc1[C@@](N)(c1ccc(Cl)cc1)c1ccc2c(c1)c(-c1cccc(Cl)c1)cc(=O)n2C [Tipifarnib] + Cc1nc(NC(=O)N2CCC[C@H]2C(N)=O)sc1-c1ccnc(C(C)(C)C(F)(F)F)c1 [Alpelisib] (partner 2 µM)
In short: (§1)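 Medians of duplicate plates are given as relative viability. That measure is the nuclei count in treated wells divided by the count in vehicle wells. Counts were taken on 4× images of lung cancer cell lines in 1536-well plates, 5 days after pin-tool dosing the day after seeding with one drug alone or a fixed anchor-drug dose plus five library-drug doses (not always all listed) in √10 steps.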

Tipifarnib + Tozasertib = compound: Cn1cncc1[C@@](N)(c1ccc(Cl)cc1)c1ccc2c(c1)c(-c1cccc(Cl)c1)cc(=O)n2C [Tipifarnib] + Cc1cc(Nc2cc(N3CCN(C)CC3)nc(Sc3ccc(NC(=O)C4CC4)cc3)n2)n[nH]1 [Tozasertib] (partner 0.1 µM)
In short: as §1

Tipifarnib + Dasatinib = compound: Cn1cncc1[C@@](N)(c1ccc(Cl)cc1)c1ccc2c(c1)c(-c1cccc(Cl)c1)cc(=O)n2C [Tipifarnib] + Cc1nc(Nc2ncc(C(=O)Nc3c(C)cccc3Cl)s2)cc(N2CCN(CCO)CC2)n1 [Dasatinib] (partner 0.075 µM)
In short: as §1

Tipifarnib + Luminespib = compound: Cn1cncc1[C@@](N)(c1ccc(Cl)cc1)c1ccc2c(c1)c(-c1cccc(Cl)c1)cc(=O)n2C [Tipifarnib] + CCNC(=O)c1noc(-c2cc(C(C)C)c(O)cc2O)c1-c1ccc(CN2CCOCC2)cc1 [Luminespib] (partner 0.01 µM)
In short: as §1

Row | Cell Line | relative viability (Tipifarnib + Alpelisib; first compound 0.01 µM) | relative viability (Tipifarnib + Alpelisib; first compound 0.03162 µM) | relative viability (Tipifarnib + Alpelisib; first compound 0.1 µM) | relative viability (Tipifarnib + Alpelisib; first compound 0.3162 µM) | relative viability (Tipifarnib + Alpelisib; first compound 1 µM) | relative viability (Tipifarnib + Tozasertib; first compound 0.01 µM) | relative viability (Tipifarnib + Tozasertib; first compound 0.03162 µM) | relative viability (Tipifarnib + Tozasertib; first compound 0.1 µM) | relative viability (Tipifarnib + Tozasertib; first compound 0.3162 µM) | relative viability (Tipifarnib + Tozasertib; first compound 1 µM) | relative viability (Tipifarnib + Dasatinib; first compound 0.01 µM) | relative viability (Tipifarnib + Dasatinib; first compound 0.03162 µM) | relative viability (Tipifarnib + Dasatinib; first compound 0.1 µM) | relative viability (Tipifarnib + Dasatinib; first compound 0.3162 µM) | relative viability (Tipifarnib + Dasatinib; first compound 1 µM) | relative viability (Tipifarnib + Luminespib; first compound 0.01 µM) | relative viability (Tipifarnib + Luminespib; first compound 0.03162 µM) | relative viability (Tipifarnib + Luminespib; first compound 0.1 µM) | relative viability (Tipifarnib + Luminespib; first compound 0.3162 µM) | relative viability (Tipifarnib + Luminespib; first compound 1 µM)
1 | NCI-H3122 | 0.665 | 0.598 | 0.527 | 0.402 | 0.401 | 0.372 | 0.27 | 0.277 | 0.196 | 0.183 | 0.63 | 0.456 | 0.644 | 0.327 | 0.138 | 0.0874 | 0.0613 | 0.0958 | 0.0893 | 0.0812
2 | PC-3 [JPC-3] | 1.04 | 1 | 0.816 | 0.78 | 0.662 | 0.827 | 0.827 | 0.722 | 0.701 | 0.535 | 1.01 | 0.994 | 0.99 | 0.679 | 0.532 | 0.74 | 0.694 | 0.66 | 0.458 | 0.409
3 | PC-14 | 0.99 | 0.774 | 0.653 | 0.392 | 0.451 | 0.397 | 0.496 | 0.172 | 0.165 | 0.155 | 0.261 | 0.206 | 0.191 | 0.128 | 0.093 | 0.221 | 0.2 | 0.149 | 0.132 | 0.131
4 | RERF-LC-KJ | 0.955 | 0.919 | 0.592 | 0.631 | 0.55 | 0.623 | 0.435 | 0.454 | 0.325 | 0.334 | 0.884 | 0.778 | 0.724 | 0.535 | 0.574 | 1.2 | 0.924 | 1.07 | 0.605 | 0.654
5 | SK-LU-1 | 1.06 | 0.655 | 0.528 | 0.49 | 0.516 | 0.305 | 0.302 | 0.311 | 0.248 | 0.265 | 0.16 | 0.152 | 0.156 | 0.14 | 0.133 | 0.252 | 0.212 | 0.208 | 0.236 | 0.193
6 | SK-MES-1 | 1.03 | 0.897 | 0.634 | 0.648 | 0.501 | 0.834 | 0.76 | 0.63 | 0.566 | 0.572 | 0.44 | 0.341 | 0.337 | 0.18 | 0.249 | 0.679 | 0.606 | 0.675 | 0.373 | 0.348
7 | SW 1573 | 0.667 | 0.718 | 0.449 | 0.44 | 0.331 | 0.177 | 0.179 | 0.145 | 0.142 | 0.176 | 0.379 | 0.33 | 0.297 | 0.217 | 0.198 | 0.208 | 0.164 | 0.239 | 0.166 | 0.187
8 | UMC-11 | 0.939 | 0.691 | 0.504 | 0.409 | 0.487 | 0.19 | 0.193 | 0.194 | 0.181 | 0.177 | 0.419 | 0.441 | 0.422 | 0.357 | 0.29 | 0.99 | 0.845 | 0.711 | 0.665 | 0.621
